# Laboratory results published in patent publication US20250288645A1, “USE OF GsMTx4 AND GsMTx4 CONJUGATES TO IMPROVE RECOVERY FROM JOINT INJURY” (priority 2023, published 2025).
# No end group written: not given here.
# Key:
# Type in all cases: in vivo
# Piezo1 = assay: Bilateral ACL-injury mouse model: Piezo1 labeling (immunofluorescence); settings: ACL-I mice, 3 weeks post-ACL-I, versus saline-treated ACL-I mice
# Source text: (§1) Some of the studies reported below involved a murine model of animals which were subjected to trauma by injuring an ACL (as an exemplar of injury to any of the four knee ligaments). Without wishing to be bound by theory, it is believed that injury to the ACL changes the mechanical loading on the joint, promoting imbalanced metabolism in articular cartilage, and promoting the development of post-traumatic OA, or “PTOA.” Animals were divided into four cohorts: the first group, the controls, were not subjected to trauma, the second group underwent bilateral ACL injury, but no further treatment, the third group underwent bilateral ACL injury, and was then administered saline solution at days 3, 10 and 17 post-injury, and the fourth group underwent bilateral ACL injury, and was then administered GsMTx4 peptide at days 3, 10 and 17 post-injury. The animals were evaluated by gait analysis, a cell vulnerability assay, and a histological evaluation/immunofluorescence assay. In one aspect, the assays compared the expression of Piezo1 and Piezo2 in chondrocytes from injured joints, from uninjured controls, and from injured joints injured and then treated with GsMTx4 and from joints that were injured and then treated only with saline solution. The study also looked at calcitonin gene-related peptide (“CGRP”)-containing (“CGRP^+”) nerve endings. […]
# chondrocytes = assay: Massive rotator cuff tear mouse model: chondrocyte mechano-vulnerability; settings: rotator cuff injury, subcutaneous injection; versus contralateral control joint and saline-injected animals
# Method: Ethical approval was obtained from the appropriate institutional committee Humeri were harvested from wild-type 12-22 week old C57Bl/6 male and female mice. Each specimen was placed in calcium imaging buffer with 2 mM calcium chloride and subsequently incubated with 10 μM calcein-AM for 30 minutes at 37° C. To indicate intracellular esterase activity of living cells, each specimen was incubated with 10 μM yoda1, a Piezo1-specific agonist, 5 nM GSK101, a TRPV4-agonist, or control (DMSO 0.25%, n=7-10/group) in calcium imaging buffer for 15 minutes. Specimens were then incubated with 1.5 nM ethidium homodimer-1 for 3 minutes to indicate loss of plasma membrane integrity in dead cells. The specimen was then arranged in a custom 3-D printed holding device such that the chondrocytes within the apex of sphericity of the humeral head were facing the glass well of a dish to be imaged on an inverted confocal microscope. […] A custom MATLAB image processing algorithm was developed to quantify cell viability. […] Then, watershed segmentation, distance transform, and centroid approximation algorithms were created and applied to segment and quantify individual cells based on intensity values. This facilitated the cell counting process, allowed quantification of the total cell area, and allowed adjustment of the region of interest between before- and after-impact micrographs. […]
# Piezo2 = assay: Bilateral ACL-injury mouse model: Piezo2 expression in CGRP+ pain nerves; settings: ACL-I mice, GsMTx4 post-injury, versus saline-treated ACL-I mice
# Source text: as §1
substance,measurement,setting,value
GsMTx4 (GCLEFWWKCNPNDDKCCRPKLKCSKLFKLCNFSF-NH2; ends and bridges not checked; listed as Grammostola spatulata),Piezo1-labeling in chondrocytes and nerves in subchondral bones,Piezo1,reduced Piezo1-labeling in chondrocytes and nerves in subchondral bones
same,chondrocyte vulnerability,chondrocytes,reduction in chondrocyte vulnerability
same,Piezo2 expression in CGRP^+ pain nerves,Piezo2,decreased Piezo2 expression in CGRP^+ pain nerves
